Assay: excess molar enthalpy (molar enthalpy of mixing); xn = mol fraction of the nth substance listed
Conditions: 101 kPa, Liquid, Flow calorimetry

CCOC(C)(C)C [2-ethoxy-2-methylpropane] + Cc1ccccc1
excess molar enthalpy [kcal/mol]
Conditions	298.15 K	313.15 K
x1 = 0.0248	-0.000932	–
x1 = 0.0491	-0.00174	–
x1 = 0.0499	–	-0.000793
x1 = 0.0739	-0.00261	–
x1 = 0.0997	–	-0.00129
x1 = 0.1003	-0.00356	–
x1 = 0.1498	-0.00507	–
x1 = 0.151	–	-0.00222
x1 = 0.1991	-0.00657	–
x1 = 0.2004	–	-0.00298
x1 = 0.2489	-0.00774	–
x1 = 0.2511	–	-0.00405
x1 = 0.2993	-0.00887	–
x1 = 0.2998	–	-0.00479
x1 = 0.3499	–	-0.00517
x1 = 0.3513	-0.00968	–
x1 = 0.3987	-0.0103	–
x1 = 0.4011	–	-0.00591
x1 = 0.4495	-0.0108	–
x1 = 0.45	–	-0.00608
x1 = 0.5003	–	-0.0065
x1 = 0.5019	-0.011	–
x1 = 0.5499	–	-0.00634
x1 = 0.5515	-0.0109	–
x1 = 0.599	-0.0108	–
x1 = 0.6007	–	-0.00599
x1 = 0.6491	-0.0102	–
x1 = 0.6506	–	-0.00587
x1 = 0.6996	–	-0.00548
x1 = 0.7014	-0.00946	–
x1 = 0.7495	-0.00832	–
x1 = 0.7498	–	-0.00491
x1 = 0.801	-0.007	–
x1 = 0.8013	–	-0.00411
x1 = 0.8492	–	-0.00341
x1 = 0.8514	-0.00531	–
x1 = 0.9006	-0.00361	–
x1 = 0.9008	–	-0.0024
x1 = 0.951	-0.00172	–
x1 = 0.9511	–	-0.00144
x1 = 1	0	0

CCCCCCC [heptane] + Cc1ccccc1
x1 = 1
Conditions	excess molar enthalpy [kcal/mol]
298.15 K	0
313.15 K	0

Cc1ccccc1 [toluene] + CCCCCCC
excess molar enthalpy [kcal/mol]
Conditions	298.15 K	313.15 K
x2 = 0	0	0
x2 = 0.0502	0.0295	0.0284
x2 = 0.1008	0.0551	0.053
x2 = 0.1501	0.0761	0.0732
x2 = 0.1995	0.094	0.09
x2 = 0.2507	–	0.104
x2 = 0.2508	0.108	–
x2 = 0.3002	0.119	0.114
x2 = 0.3495	0.127	–
x2 = 0.3496	–	0.121
x2 = 0.4005	0.131	–
x2 = 0.4006	–	0.126
x2 = 0.4494	0.134	–
x2 = 0.4497	–	0.128
x2 = 0.4999	0.133	0.128
x2 = 0.55	0.13	0.125
x2 = 0.5995	0.125	0.119
x2 = 0.6505	0.116	–
x2 = 0.6506	–	0.111
x2 = 0.7009	0.106	0.102
x2 = 0.7504	0.0935	–
x2 = 0.7505	–	0.0899
x2 = 0.799	0.0797	0.0763
x2 = 0.849	0.0631	0.0599
x2 = 0.9005	0.0431	0.0416
x2 = 0.9509	0.0221	0.0212

COC(C)(C)C [2-methoxy-2-methylpropane] + CCCO
298.15 K
Conditions	excess molar enthalpy [kcal/mol]
x1 = 0.0491	0.0148
x1 = 0.0997	0.0314
x1 = 0.1503	0.0481
x1 = 0.1976	0.0632
x1 = 0.2472	0.0781
x1 = 0.2965	0.0915
x1 = 0.3477	0.105
x1 = 0.4008	0.116
x1 = 0.4468	0.124
x1 = 0.4982	0.131
x1 = 0.5486	0.136
x1 = 0.5974	0.138
x1 = 0.6485	0.136
x1 = 0.6977	0.133
x1 = 0.7491	0.126
x1 = 0.7985	0.114
x1 = 0.8494	0.0963
x1 = 0.8986	0.0737
x1 = 0.9498	0.0413
x1 = 1	0

Cc1ccccc1 [toluene] + C1CCCCC1
x2 = 0
Conditions	excess molar enthalpy [kcal/mol]
298.15 K	0
313.15 K	0

CCCCCCC [heptane] + CCOC(C)(C)C
x2 = 0
Conditions	excess molar enthalpy [kcal/mol]
298.15 K	0
313.15 K	0

CCOC(C)(C)C [2-ethoxy-2-methylpropane] + C1CCCCC1
excess molar enthalpy [kcal/mol]
Conditions	298.15 K	313.15 K
x1 = 0.0505	0.0121	–
x1 = 0.0506	–	0.0114
x1 = 0.1	0.0236	–
x1 = 0.1001	–	0.0219
x1 = 0.1508	0.0343	–
x1 = 0.1509	–	0.0326
x1 = 0.2005	0.0433	–
x1 = 0.2006	–	0.0417
x1 = 0.2514	0.0519	–
x1 = 0.2515	–	0.05
x1 = 0.3011	0.059	–
x1 = 0.3012	–	0.0562
x1 = 0.3519	0.0652	0.0624
x1 = 0.4014	0.0703	–
x1 = 0.4015	–	0.0675
x1 = 0.4519	0.0741	–
x1 = 0.452	–	0.0704
x1 = 0.5012	0.0761	0.0729
x1 = 0.5513	0.0773	0.0736
x1 = 0.6021	0.0764	0.0731
x1 = 0.6516	0.0739	–
x1 = 0.6517	–	0.0708
x1 = 0.7017	0.0701	–
x1 = 0.7019	–	0.0669
x1 = 0.7507	0.0643	–
x1 = 0.7508	–	0.0616
x1 = 0.8002	0.0564	0.0535
x1 = 0.85	–	0.0439
x1 = 0.8501	0.0464	–
x1 = 0.9003	0.0339	0.0321
x1 = 0.9508	0.0182	0.0174
x1 = 1	0	0

Reference: the NIST ThermoML archive (doi:10.1016/j.jct.2008.12.004)
